Laboratory results taken from BindingDB's records for doi:10.1021/jm00174a016 (University of Paris, 1991).
Where a SMILES comes first, the peptide text is derived from it. [ ]: non-standard residue; d: D form. The star is where a group is joined. sY = N[C@@H](Cc1ccc(OS(=O)(=O)O)cc1)C(=O)O; Nle = CCCC[C@H](N)C(=O)O; Orn = NCCC[C@H](N)C(=O)O; Cbz = O=C(OCc1ccccc1)*; Boc = CC(C)(C)OC(=O)*

What was measured:
[1] = target: Gastrin/cholecystokinin type B receptor (Cavia porcellus); assay: Apparent affinity to inhibit binding of [3H]pCCK-8 to Cholecystokinin type B receptor of guinea pig brain membranes
[2] = target: Gastrin/cholecystokinin type B receptor (Cavia porcellus); assay: as above; remark: listed apart in the source

SMILES | Ki [1] [nM] | Ki [2] [nM]
CC(C)(C)OC(=O)N[C@@H](Cc1c[nH]c2ccccc12)C(=O)N[C@@H](CCCNC(=O)OCc1ccccc1)C(=O)N[C@@H](CC(=O)O)C(N)=O (Boc-Trp-[Orn](Cbz)-Asp-NH2) | 4200 | 
CC(C)(C)OC(=O)N[C@@H](Cc1c[nH]c2ccccc12)C(=O)N[C@@H](CCCNC(=O)OCc1ccccc1)C(=O)N[C@@H](CC(=O)O)C(=O)N[C@@H](Cc1ccccc1)C(N)=O (Boc-W[Orn](Cbz)DF-NH2) | 580 | 
CC(C)(C)OC(=O)N[C@@H](Cc1c[nH]c2ccccc12)C(=O)N[C@@H](CCCN)C(=O)N[C@@H](CC(=O)O)C(=O)N[C@@H](Cc1ccccc1)C(N)=O (Boc-W[Orn]DF-NH2) |  | 1400
CCCC[C@H](NC(=O)[C@H](Cc1ccc(OS(=O)(=O)O)cc1)NC(=O)OC(C)(C)C)C(=O)NCC(=O)N[C@@H](Cc1c[nH]c2ccccc12)C(=O)N[C@@H](CCCNC(=O)OCc1ccccc1)C(=O)N[C@@H](CC(=O)O)C(N)=O (Boc-[sY][Nle]GW[Orn](Cbz)D-NH2) | 54 | 
CC(C)(C)OC(=O)NCCC[C@H](NC(=O)[C@H](Cc1c[nH]c2ccccc12)NC(=O)OC(C)(C)C)C(=O)N[C@@H](CC(=O)O)C(N)=O [3-{5-tert-Butoxycarbonylamino-2-[2-tert-butoxycarbonylamino-3-(1H-indol-3-yl)-propionylamino]-pentanoylamino}-succinamic acid] (Boc-Trp-[Orn](Boc)-Asp-NH2) |  | 4300
